Article PMC9671962 (Communications Biology, 2022)
Several values for one entry are separate records, joined by “and”; a condition that tells them apart may be missing. Equal values may be shown once.

Assays:
[1] = test system: high-risk neuroblastoma patient-derived xenograft (PDX) mouse models; assay: Pre-clinical efficacy study in 11 neuroblastoma PDX mouse models (grouped analysis); assay type: in vivo
Experimental: (§1) Patient demographics and genetic characteristics are listed in (Supplementary Tables 1, 2)[17]. The maximum tolerated dose (MTD) was determined to be 36 MBq/kg administered by intra-peritoneal injection twice weekly for a total of 4 dose fractions and this fractionated regimen was used in all studies (Supplementary Fig. 1)[18],[19]. […] Nine of 11 PDX models were MYCN amplified (Fig. 1b), which is a hallmark of high-risk neuroblastoma. Tumor response was measured as the maximum percent decrease in tumor volume after treatment and event-free survival (EFS) was measured by the area over the curve method with tumor events pre-defined by tumor growth exceeding 2 cm[3],[18].
(§2) The use of 2 mice per arm was based on the previously reported statistical analysis. PDX tumors were implanted into the right flank of 5 to 6-weeks old female mice weighing about 20–25 grams. […] Two additional dose levels of 12, and 24 MBq/kg/fraction were assessed in a subset of models and were administered as stated above. In two models treated at the 24 MBq/kg/fraction dose level we re-challenged tumor response at the time of tumor progression with an additional 4 dose fractions at 24 MBq/kg/fraction given twice weekly. Doses were prepared in 500 µL total volume. An equal volume of saline was used for the vehicle group. Tumors were measured using a digital caliper at the initiation of the study and two times per week during the treatment period. Tumor volumes were calculated as volume = ([…]∗0.5236)/1000. Weights were obtained twice weekly and mice were monitored daily for signs of toxicity. […] Tumor response was assessed by best response defined as greatest reduction in tumor volume following the last dose and is presented as percent change in tumor volume. Event-free survival was determined by area over the curve method that calculates the time to tumor event, which was defined as tumors reaching or exceeding a size ≥ 2 cm^3.
(§3) Animal studies were performed in female mice due to the lack of sex-related differences for [^211At]PTT tolerability from initial dose response studies performed in female and male mice. Female mice were chosen due to their underlying behavior towards other study subjects that reduced nonstudy-related causes for decreased wellness. Pre-clinical efficacy studies were performed through “single mouse testing” to more closely recapitulate a clinical trial. […] Number size for treatment groups was determined by model tumor growth reproducibility, which was previously shown to have less than 5% normal variation with at least two animals. Statistical tests for tumor response and event-free survival (EFS) were performed as a grouped analysis that included all tumor models treated at each respective dose level (n = 2 per model per dose level). Statistical differences between treatment groups for tumor response was performed by paired-model T-test that compared reduction in tumor volume for the 36 MBq/kg dose level vs. 24 MBq/kg or 12 MBq/kg. Event free survival was measured by area over the curve method to quantify time to event, which was set as tumor growth exceeding 2 cm[3],[19]. Differences in EFS were tested across all treated models for each respective dose level, and against untreated controls, by paired-model ANOVA analysis. Associations of drug target expression and response were performed by linear regression analysis of EFS and PARP1 mRNA expression. Genetic signatures were visually presented as a function of EFS and no statistical tests were applied. Blood and marrow toxicity studies were performed with n = 5 sample sizes and powered to detect >20% differences between untreated controls and treated animals. Results were tested for significance by one-way ANOVA comparison from untreated controls. Marrow colony formation assays were performed in replicates of 2 for each mouse subject, dependent on marrow isolation, and all replicates are included in final analyses. […]

COG-N-426x-FELIX = assay: Pre-clinical efficacy study, COG-N-426x-FELIX PDX; assay type: in vivo, mouse; settings: for Tumor Volume: COG-N-426x-FELIX tumor re-challenge (24 MBq/kg/fraction x 4); for EFS by AOC method / Tumor response (% growth from study initiation at ~ 200 mm3): single mouse
Experimental: as §1, §2, §3

COG-N-415x = assay: Pre-clinical efficacy study, COG-N-415x PDX; assay type: in vivo; settings: single mouse
Experimental: as §1, §2, §3

[2] = COG-N-426x-FELIX, 24 MBq/kg/fraction x 4 fractions
[3] = COG-N-426x-FELIX, 36 MBq/kg/fraction x 4 fractions
[4] = 12 MBq/kg/fraction x 4 fractions
[5] = 24 MBq/kg/fraction x 4 fractions
[6] = 36 MBq/kg/fraction x 4 fractions

O=C1NCCn2c(-c3ccc([211At])cc3)nc3cccc1c32 [[^211At]PTT, Astatine-211-parthanatine] was tested, and the “median EFS” value ([1]; 12 MBq/kg dose level) was 23 days, the “mouse tumors showing progressing disease after treatment” value ([1]; 12 MBq/kg dose level (COG-N-415x n = 1, COG-N-453x n = 1)) was “two” and the “average decrease in tumor volume” value ([1]; 12 MBq/kg, n = 8, 4 PDX models) was 27.15 ± 42.2%. For the same compound, the “median EFS” value ([1]; 24 MBq/kg dose level) was 46 days, the “reduction in tumor volume after therapy re-challenge” value ([1]; 24 MBq/kg re-challenge, COG-N-426x-Felix and NB-EBC1x, n = 2) was 100% and the “average decrease in tumor volume” value ([1]; 24 MBq/kg, n = 14, 7 PDX models) was 92.6 ± 8.1%. For the same compound, the “average decrease in tumor volume” value ([1]; 36 MBq/kg (MTD), n = 22, 11 PDX models) was 98.4 ± 3.3%, the “median event free survival (EFS)” value ([1]; 36 MBq/kg/fraction x4 (MTD)) was 74 days and the “mice with no measurable tumor/disease at end of study” value ([1]; MTD, 6/20 mice, >95 days (b1), >90 days) was 30%. The “complete tumor response, share of tumors” value ([1]; MTD, 18 of 22 tumors) was 81.8%, the “Tumor Volume” value (COG-N-426x-FELIX; week 0) was 0.25 cm3 and the “Tumor Volume” value (COG-N-426x-FELIX; week 0.4) was 0.2 cm3. The “Tumor Volume” value (COG-N-426x-FELIX; week 0.9) was 0.05 cm3, the “Tumor Volume” value (COG-N-426x-FELIX; week 1.3) was 0.08 cm3 and the “Tumor Volume” value (COG-N-426x-FELIX; week 1.9) was 0.01 cm3. The “Tumor Volume” value (COG-N-426x-FELIX; week 2.3) was 0.01 cm3, the “Tumor Volume” value (COG-N-426x-FELIX; week 2.9) was 0 cm3 and the “Tumor Volume” value (COG-N-426x-FELIX; week 3.4) was 0.01 cm3. The “Tumor Volume” value (COG-N-426x-FELIX; week 3.9) was 0 cm3, the “Tumor Volume” value (COG-N-426x-FELIX; week 4.4) was 0 cm3 and the “Tumor Volume” value (COG-N-426x-FELIX; week 4.9) was 0 cm3. For the same compound, the “Tumor Volume” value (COG-N-426x-FELIX; week 5.3) was 0 cm3, the “Tumor Volume” value (COG-N-426x-FELIX; week 5.9) was 0 cm3 and the “Tumor Volume” value (COG-N-426x-FELIX; week 6.3) was 0.02 cm3. The “Tumor Volume” value (COG-N-426x-FELIX; week 6.9) was 0.19 cm3, the “Tumor Volume” value (COG-N-426x-FELIX; week 7.3) was 0.13 cm3 and the “Tumor Volume” value (COG-N-426x-FELIX; week 7.9) was 0.03 cm3. For the same compound, the “Tumor Volume” value (COG-N-426x-FELIX; week 8.3) was 0.02 cm3, the “Tumor Volume” value (COG-N-426x-FELIX; week 8.9) was 0 cm3 and the “Tumor Volume” value (COG-N-426x-FELIX; week 9.3) was 0 cm3. For the same compound, the “Tumor Volume” value (COG-N-426x-FELIX; week 9.9) was 0 cm3, the “Tumor Volume” value (COG-N-426x-FELIX; week 10.3) was 0 cm3 and the “Tumor Volume” value (COG-N-426x-FELIX; week 10.9) was 0 cm3. For the same compound, the “Tumor Volume” value (COG-N-426x-FELIX; week 11.3) was 0 cm3, the “Tumor Volume” value (COG-N-426x-FELIX; week 11.9) was 0 cm3 and the “Tumor Volume” value (COG-N-426x-FELIX; week 12.3) was 0 cm3. For the same compound, the “Tumor Volume” value (COG-N-426x-FELIX; week 12.9) was 0 cm3, the “Tumor Volume” value (COG-N-426x-FELIX; week 13.3) was 0 cm3 and the “Tumor Volume” value (COG-N-426x-FELIX; week 13.9) was 0 cm3. The “Tumor Volume” value (COG-N-426x-FELIX; week 14.3) was 0 cm3, the “Tumor Volume” value (COG-N-426x-FELIX; week 14.9) was 0 cm3 and the “EFS1 (initial treatment)” value (COG-N-426x-FELIX; COG-N-426x-FELIX, 24 MBq/kg/fraction x 4, re-challenged mouse n = 1) was 49 days and 49.5 days. For the same compound, the “EFS by AOC method” value (COG-N-426x-FELIX; [2]) was 103. 9 Days, the “Tumor response (% growth from study initiation at ~ 200 mm3)” value (COG-N-426x-FELIX; [2]) was -100% and the “EFS by AOC method” value (COG-N-426x-FELIX; [3]) was 104. 1 Days and 104.134 Days and 104.127 Days. The “Tumor response (% growth from study initiation at ~ 200 mm3)” value (COG-N-426x-FELIX; [3]) was -100%, the “EFS2 (re-challenge treatment)” value (COG-N-426x-FELIX; COG-N-426x-FELIX, re-challenge 24 MBq/kg/fraction x 4 at tumor progression, no measurable disease) was 59 days and the “EFS by AOC method” value (COG-N-415x; [4]) was 14.1951 days and 16.6777 days. The “Tumor response (% growth from study initiation at ~ 200 mm3)” value (COG-N-415x; [4]) was 74.1936% and -21.7391%, the “EFS by AOC method” value (COG-N-415x; [5]) was 27.6 days and 26.9 days and 27.5972 days and 26.9655 days and the “Tumor response (% growth from study initiation at ~ 200 mm3)” value (COG-N-415x; [5]) was -80.7692% and -84.6154%. The “EFS by AOC method” value (COG-N-415x; [6]) was 38.3761 days and 73.0746 days and the “Tumor response (% growth from study initiation at ~ 200 mm3)” value (COG-N-415x; [6]) was -100% and -94.4444%.
